# In PubChem BioAssay (NCI):
#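 Abbreviation: GI50, concentration required for 50% inhibition of growth. TGI denotes the concentration required for complete inhibition of growth.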
# How the values were obtained:
# Assay in all cases: DTP human tumour cell line panel, 384-well format
# [1] = test system: UO-31 renal
# [2] = test system: HS 578T breast
# [3] = test system: SF-539 CNS
# [4] = test system: SN12C renal
# [5] = test system: OVCAR-8 ovarian
# [6] = test system: SK-OV-3 ovarian
# [7] = test system: PC-3 prostate
# [8] = test system: UACC-62 melanoma
# [9] = test system: SW-620 colon
# [10] = test system: NCI-H23 lung
# [11] = test system: M14 melanoma
# [12] = test system: RPMI-8226 leukemia
# [13] = test system: UACC-257 melanoma
# [14] = test system: 786-0 renal
# [15] = test system: LOX IMVI melanoma
# [16] = test system: CAKI-1 renal
# [17] = test system: NCI-H522 lung
# [18] = test system: MDA-MB-468 breast
# [19] = test system: BT-549 breast
# [20] = test system: HT29 colon
# [21] = test system: OVCAR-4 ovarian
# [22] = test system: IGROV1 ovarian
# [23] = test system: EKVX NSCLC
# [24] = test system: U251 glioblastoma
# [25] = test system: HCT-15 colon
# [26] = test system: MCF7 breast
# [27] = test system: HOP-92 NSCLC
# [28] = test system: T-47D breast
# [29] = test system: K-562 leukemia
# [30] = test system: ACHN renal
# [31] = test system: MALME-3M melanoma
# [32] = test system: HCT-116 colon
# [33] = test system: A549 NSCLC
# [34] = test system: SNB-75 CNS
# [35] = test system: NCI-H322M lung
# [36] = test system: SF-295 CNS
# [37] = test system: OVCAR-5 ovarian
# [38] = test system: KM12 colon
# [39] = test system: SK-MEL-28 melanoma
# [40] = test system: CCRF-CEM leukemia
# [41] = test system: SNB-19 CNS
# [42] = test system: SK-MEL-2 melanoma
# [43] = test system: OVCAR-3 ovarian
# [44] = test system: RXF 393 renal
# [45] = test system: MDA-MB-435 melanoma
# [46] = test system: NCI-H226 lung
# [47] = test system: A498 renal
# [48] = test system: SF-268 CNS
# [49] = test system: NCI/ADR-RES ovarian
# [50] = test system: HOP-62 NSCLC
# [51] = test system: MDA-MB-231 breast
smiles,measurement,setting,value
COc1cccc2c1C(=O)c1c(O)c3c(c(O)c1C2=O)C[C@@](O)(C(C)=O)C[C@@H]3OC1CC(N)C(O)C(C)O1 (stereo partly drawn),GI50,[1],303 nM
same,TGI,[1],1470 nM
same,GI50,[2],45.4 nM
same,TGI,[2],234 nM
same,GI50,[3],13.5 nM
same,TGI,[3],115 nM
same,GI50,[4],24.2 nM
same,TGI,[4],160 nM
same,GI50,[5],37 nM
same,TGI,[5],197 nM
same,GI50,[6],36.7 nM
same,TGI,[6],181 nM
same,GI50,[7],85.9 nM
same,TGI,[7],282 nM
same,GI50,[8],11.5 nM
same,TGI,[8],115 nM
same,TGI,[9],201 nM
same,GI50,[10],21.9 nM
same,TGI,[10],69.3 nM
same,GI50,[11],21.8 nM
same,TGI,[11],135 nM
same,TGI,[12],20.9 nM
same,GI50,[13],90.2 nM
same,TGI,[13],216 nM
same,GI50,[14],31 nM
same,TGI,[14],1200 nM
same,GI50,[15],19.3 nM
same,TGI,[15],135 nM
same,GI50,[16],48.6 nM
same,TGI,[16],440 nM
same,TGI,[17],90.9 nM
same,GI50,[18],10.7 nM
same,TGI,[18],24 nM
same,GI50,[19],17.9 nM
same,TGI,[19],94.7 nM
same,GI50,[20],29.2 nM
same,TGI,[20],148 nM
same,GI50,[21],165 nM
same,TGI,[21],701 nM
same,GI50,[22],118 nM
same,TGI,[22],281 nM
same,GI50,[23],283 nM
same,TGI,[23],1650 nM
same,GI50,[24],10 nM
same,TGI,[24],1080 nM
same,GI50,[25],51.7 nM
same,TGI,[25],1010 nM
same,GI50,[26],21.5 nM
same,TGI,[26],10500 nM
same,GI50,[27],60 nM
same,TGI,[27],3140 nM
same,GI50,[28],36.8 nM
same,TGI,[28],2140 nM
same,GI50,[29],14.6 nM
same,TGI,[29],138 nM
same,GI50,[30],69.5 nM
same,TGI,[30],265 nM
same,GI50,[31],44.5 nM
same,TGI,[31],176 nM
same,GI50,[32],14.6 nM
same,TGI,[32],1970 nM
same,GI50,[33],36.9 nM
same,TGI,[33],170 nM
same,GI50,[34],108 nM
same,TGI,[34],269 nM
same,GI50,[35],152 nM
same,TGI,[35],433 nM
same,GI50,[36],32.1 nM
same,TGI,[36],114 nM
same,GI50,[37],105 nM
same,TGI,[37],325 nM
same,GI50,[38],15.9 nM
same,TGI,[38],908 nM
same,GI50,[39],103 nM
same,TGI,[39],229 nM
same,TGI,[40],16.9 nM
same,GI50,[41],31.8 nM
same,TGI,[41],13100 nM
same,GI50,[42],71 nM
same,TGI,[42],142 nM
same,GI50,[43],78.1 nM
same,TGI,[43],566 nM
same,GI50,[44],102 nM
same,TGI,[44],237 nM
same,GI50,[45],103 nM
same,TGI,[45],260 nM
same,GI50,[46],33.5 nM
same,TGI,[46],282 nM
same,GI50,[47],28.2 nM
same,TGI,[47],199 nM
same,GI50,[48],25.4 nM
same,TGI,[48],181 nM
same,GI50,[49],1520 nM
same,TGI,[49],3390 nM
same,GI50,[50],19.4 nM
same,TGI,[50],73.8 nM
same,GI50,[51],24.3 nM
same,TGI,[51],133 nM
